Drawing on ChEMBL document CHEMBL5137105, “Tricyclic Carboxamide Derivatives as PRMT5 Inhibitors for Treating Cancer” (ACS Med Chem Lett, 2022), this text covers IC50 for 6 compounds.

The test is described as follows: Antiproliferative activity against human HCT116-MTAP null cells assessed as reduction in cell viability incubated for 6 days by CellTiter-Glo luminescent assay. Type of test: functional, cell-based. The settings on record: 144 h. (In ATP-based viability assays light output follows the ATP content of the culture.)

The term IC50 denotes the midpoint of a concentration-inhibition curve.

As to `Cn1cc(N(Cc2ccc(C(F)(F)F)cn2)C(=O)c2cc3c(cc2F)nc(N)c2cnn(C)c23)cn1`, the IC50 is 5 nM. Under `C[C@H](c1ncccn1)N(Cc1ccc(C#N)c(Cl)n1)C(=O)c1ccc2nc(N)c3c(c2c1)COC3` stands 5 nM. Take `Cn1cc(N(Cc2ccc(C(F)(F)F)cn2)C(=O)c2cc3c4c(c(N)nc3cc2Cl)COC4)cn1`: the IC50 worked out at 6 nM. Under `CC1OCc2c1c(N)nc1ccc(C(=O)N(Cc3ccc(C(F)(F)F)cn3)Cc3ccnc4[nH]ccc34)cc21` (stereo unspecified) stands 6 nM.

As to `C[C@H](c1ncccn1)N(Cc1ccc(C(F)(F)F)cn1)C(=O)c1ccc2nc(N)c3c(c2c1)CCC3`, the IC50 turned out to be 6 nM. In the case of `Cn1ncc2c(N)nc3cc(F)c(C(=O)N(Cc4ccc(C(F)(F)F)cn4)C4CCC4)cc3c21`, the IC50 amounted to 5 nM.
